{
  "source": "patent US4203909A",
  "about": "“Furan compounds” (Bristol-Myers Company, priority 1978, dated 1980)",
  "key": {"H2 receptors": {"tested_on": "H2 receptors", "conditions": "cited from earlier work"}, "[1]": {"biological_target": "T1, histamine H2 -receptors (isolated guinea pig right atria) (Cavia porcellus, UniProt P47747)", "T1 construct": "The spontaneously beating right atrium was dissected free from other tissues; from tissue; host or cells: isolated spontaneously beating right atrium of male Hartley guinea pigs", "T1 sequence (P47747 whole entry)": "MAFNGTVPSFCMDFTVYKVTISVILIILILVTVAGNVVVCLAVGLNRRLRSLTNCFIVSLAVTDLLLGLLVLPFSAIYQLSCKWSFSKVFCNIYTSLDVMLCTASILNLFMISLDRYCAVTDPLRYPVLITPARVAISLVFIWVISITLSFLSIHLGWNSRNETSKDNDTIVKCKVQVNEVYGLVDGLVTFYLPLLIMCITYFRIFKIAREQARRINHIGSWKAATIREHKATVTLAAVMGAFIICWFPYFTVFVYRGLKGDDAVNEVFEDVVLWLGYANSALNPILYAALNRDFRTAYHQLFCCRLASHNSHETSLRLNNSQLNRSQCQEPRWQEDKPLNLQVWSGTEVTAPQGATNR", "assay": "Histamine H2-receptor antagonism, isolated guinea pig atria assay", "format": "cell-based, guinea pig (male Hartley strain)", "conditions": "for Histamine ED50 With 95% Confidence Limits: histamine ED50 in presence of test compound 3 × 10^-5 M, 30 minute incubation; for Concentration-Response Curve Displacement Factor / Activity Ratio Relative to Cimetidine: test compound 3 × 10^-5 M; for Activity Ratio Relative to Cimetidine: cimetidine = 1.0", "description": "Subsequent investigations by Hughes and Coret, Proc. Soc. […] Black et al., Agents and Actions, 3, 133 (1973) and Brimblecombe et al., Fed. […] The present comparative studies were carried out using a modification of the procedure reported by Reinhardt et al., Agents and Actions, 4, 217 (1974).\nMale Hartley strain guinea pigs (350-450 gm.) were sacrificed by a blow on the head. The heart was excised and placed in a Petri dish of oxygenated (95% O2, 5% CO2) modified Krebs solution (g./liter: NaCl 6.6, KCl 0.35, MgSO4.7 H2 O 0.295, KH2 PO4 0.162, CaCl2 0.238, NaHCO3 2.1 and dextrose 2.09). The spontaneously beating right atrium was dissected free from other tissues and a silk thread (4-0) attached to each end. The atrium was suspended in a 20 ml. muscle chamber containing oxygenated modified Krebs solution maintained at 32° C. Atrial contractions were recorded isometrically by means of a Grass FT 0.03 force displacement transducer and recordings of contractile force and rate were made with a Beckman RP Dynograph.\nA resting tension of 1 g. was applied to the atrium and it was allowed to equilibrate for 1 hour.\nConcentration-response curve displacement factors were calculated as follows: [formula] […] [formula]"}, "peptic ulcer disease": {"tested_on": "peptic ulcer disease", "conditions": "clinical evaluation; cited from earlier work"}, "[2]": {"conditions": "clinical; cited from earlier work"}, "histamine H2 -receptors": {"tested_on": "histamine H2 -receptors", "conditions": "isolated guinea pig right atria; cited from earlier work"}, "gastric secretion": {"tested_on": "gastric secretion", "conditions": "cited from earlier work"}, "gastric acid output [3]": {"tested_on": "gastric acid output", "assay": "Gastric antisecretory activity in the two hour pylorus ligated (Shay) rat", "format": "in vivo, rat (male Long Evans)", "conditions": "for Percent Inhibition Acid Output / ED50: 2 h; for ED50: two hour pylorus ligated rat; for Potency Ratio: relative to cimetidine = 1.00", "from_the_text": "The pyloric ligation procedure in the rat was designed by Shay et al., Gastroenterology, 5, 53 (1945) for the study of perforating gastric ulcers; however, as the method became known, it was also employed as a means of studying rat gastric secretion, Shay et al., Gastroenterology, 26, 906 (1954), Brodie, D. A., Am. J. Dig. Dis., 11, 231 (1966). A modification of this procedure is presently used to evaluate compounds for gastric antisecretory activity.\nMale Long Evans rats, 280-300 gm., are used. The aimals are placed in individual cages and fasted for 24 hours with free access to water. Under ther anesthesia, the stomach is reached through a midline incision, and a cotton-thread ligature is placed around the pylorus. […] All compounds are solubilized with one equivalent of HCl and brought to the proper volume with water. The animals are returned to their cages from which the water bottles have been removed and two hours later are sacrificed with ether. The stomach is removed and the two hour gastric collection is drained into a graduated test tube for volume determination. Titratable acidity is measured by titrating a one ml. sample to pH 7.0 with 0.02 N NaOH, using an Autoburet and an electrometric pH meter (Radiometer). Titratable acid output is calculated in microequivalents by multiplying the volume in milliliters by the acid concentration in milliequivalents per liter. The percent inhibition of acid output is calculated as follows [formula]"}, "gastric acid output [4]": {"tested_on": "gastric acid output", "assay": "Gastric antisecretory activity in the gastric fistula dog", "format": "in vivo, beagle dogs", "conditions": "for Percent Inhibition Acid Output: histamine infusion", "description": "Thomas type [Thomas, J. E., Proc. Soc. Exp. Biol. Med., 46, 260 ([…])] stainless steel cannulae are inserted into the stomachs of beagle dogs (10-12 kg.) just orad to the pyloric gland area near the greater curvature to provide a chronic gastric fistula. Animals are allowed to recover for at least two months before any testing is done. Dogs are fasted overnight (~18 hours) with water ad lib prior to each experiment. The dogs are placed in a sling and an eight inch inside needle catheter (C. R. Baird, Inc.) with a two inch 17 gauge needle is inserted into a leg vein for purposes of drug administration. Gastric secretions are collected every 15 minutes by gravity drainage from the opened cannula. […] A modification of the procedure described by Grossman and Konturek, Gastroenterology, 66, 517 (1974) was followed. […] Each 15 minute sample of gastric juice is measured to the nearest 0.5 ml. and titratable acidity against 0.02 N NaOH (endpoint pH 7.0) is measured with an Autoburet and pH meter (radiometer). The percent inhibition of acid output is calculated as described in the pylorus ligated rat procedure."}},
  "data": [
    {"molecule": "CN=C(NC#N)NCCSCc1nc[nH]c1C", "note": "[Cimetidine]", "values": [
      {"measurement": "H2 antagonist potency/effectiveness (in words)", "setting": "H2 receptors", "result": "as effective an H2 antagonist as metiamide"},
      {"measurement": "Histamine ED50 With 95% Confidence Limits", "setting": "[1]", "result": 4.80, "unit": "µg/mL"},
      {"measurement": "Concentration-Response Curve Displacement Factor", "setting": "[1]", "result": 25.26},
      {"measurement": "clinical effectiveness", "setting": "peptic ulcer disease", "result": "effective therapeutic agent in the treatment of peptic ulcer disease"},
      {"measurement": "toxicity (agranulocytosis)", "setting": "[2]", "result": "without producing agranulocytosis"}
    ]},
    {"molecule": "CNC(=S)NCCCCc1cnc[nH]1", "note": "[Burimamide]", "values": [
      {"measurement": "H2-receptor mediated effect in atria (in words)", "setting": "histamine H2 -receptors", "result": "competitive antagonist of these receptors"},
      {"measurement": "clinical effectiveness", "setting": "peptic ulcer disease", "result": "first clinically effective H2 -receptor antagonist"},
      {"measurement": "inhibition of gastric secretion", "setting": "gastric secretion; animals and man", "result": "inhibits gastric secretion in animals and man"}
    ]},
    {"molecule": "CNC(=C[N+](=O)[O-])NCCSCc1ccc(CN(C)C)o1", "note": "[Compound XVI, reference compound]", "values": [
      {"measurement": "Histamine ED50 With 95% Confidence Limits", "setting": "[1]", "result": 11.97, "unit": "µg/mL"},
      {"measurement": "Concentration-Response Curve Displacement Factor", "setting": "[1]", "result": 38.61},
      {"measurement": "Percent Inhibition Acid Output", "setting": "gastric acid output [3]; 5 μ Mole/kg ip", "result": 42, "unit": "%"},
      {"measurement": "Percent Inhibition Acid Output", "setting": "gastric acid output [3]; 10 μ Mole/kg ip", "result": 77, "unit": "%"},
      {"measurement": "Percent Inhibition Acid Output", "setting": "gastric acid output [3]; 20 μ Mole/kg ip", "result": 89, "unit": "%"},
      {"measurement": "ED50", "setting": "gastric acid output [3]; ip", "result": 4.52, "unit": "µmol/kg"},
      {"measurement": "Potency Ratio", "setting": "gastric acid output [3]; ip", "result": 2.31, "unit": "times"}
    ]},
    {"molecule": "NCCc1c[nH]cn1", "note": "[Histamine]", "values": [
      {"measurement": "H2-receptor mediated effect in atria (in words)", "setting": "histamine H2 -receptors", "result": "concentration-related increases in the contractile rate"}
    ]},
    {"molecule": "C#CCNC(=C[N+](=O)[O-])NCCSCc1ccc(CN(C)C)o1", "note": "[BL-5966, 1-Nitro-2-(2-propynylamino)-2-{2-[(5-dimethylaminomethyl-2-furyl)methylthio]ethylamino}ethylene]", "values": [
      {"measurement": "Histamine ED50 With 95% Confidence Limits", "setting": "[1]", "result": 32.70, "unit": "µg/mL"},
      {"measurement": "potency as histamine H2 receptor antagonist (in words)", "setting": "[1]; isolated guinea pig atria", "result": "more potent than either cimetidine or Compound XVI"},
      {"measurement": "activity relative to Compound XVI", "setting": "[1]; isolated guinea pig right atria, vs Compound XVI", "result": "about 4.80 times"},
      {"measurement": "Concentration-Response Curve Displacement Factor", "setting": "[1]", "result": 181.67},
      {"measurement": "Percent Inhibition Acid Output", "setting": "gastric acid output [4]; 0.0469 μ Mole/kg iv", "result": 32, "unit": "%"},
      {"measurement": "Percent Inhibition Acid Output", "setting": "gastric acid output [4]; 0.0938 μ Mole/kg iv", "result": 47, "unit": "%"},
      {"measurement": "Percent Inhibition Acid Output", "setting": "gastric acid output [4]; 0.1875 μ Mole/kg iv", "result": 46, "unit": "%"},
      {"measurement": "Percent Inhibition Acid Output", "setting": "gastric acid output [4]; 0.375 μ Mole/kg iv", "result": 90, "unit": "%"},
      {"measurement": "ED50", "setting": "gastric acid output [4]; Canis lupus familiaris, iv, gastric fistula dog", "result": 0.12, "unit": "µmol/kg"},
      {"measurement": "potency as inhibitor of gastric secretion (in words)", "setting": "gastric acid output [4]; dogs", "result": "more potent than either cimetidine or Compound XVI"},
      {"measurement": "Potency Ratio", "setting": "gastric acid output [4]; iv, relative to cimetidine = 1.0", "result": 11.5, "unit": "times"},
      {"measurement": "Percent Inhibition Acid Output", "setting": "gastric acid output [3]; 0.625 μ Mole/kg ip", "result": 27, "unit": "%"},
      {"measurement": "Percent Inhibition Acid Output", "setting": "gastric acid output [3]; 1.25 μ Mole/kg ip", "result": 36, "unit": "%"},
      {"measurement": "Percent Inhibition Acid Output", "setting": "gastric acid output [3]; 2.5 μ Mole/kg ip", "result": 59, "unit": "%"},
      {"measurement": "Percent Inhibition Acid Output", "setting": "gastric acid output [3]; 5 μ Mole/kg ip", "result": 83, "unit": "%"},
      {"measurement": "ED50", "setting": "gastric acid output [3]; ip", "result": 1.8, "unit": "µmol/kg"},
      {"measurement": "Potency Ratio", "setting": "gastric acid output [3]; ip", "result": 5.81, "unit": "times"},
      {"measurement": "potency relative to Compound XVI", "setting": "gastric acid output [3]; ip, vs Compound XVI", "result": 2.52, "unit": "times"},
      {"measurement": "potency as inhibitor of gastric secretion (in words)", "setting": "gastric acid output [3]; rats", "result": "more potent than either cimetidine or Compound XVI"}
    ]},
    {"molecule": "CNC(=S)NCCSCc1nc[nH]c1C", "note": "[Metiamide]", "values": [
      {"measurement": "H2 antagonist potency/effectiveness (in words)", "setting": "H2 receptors", "result": "more potent than burimamide"},
      {"measurement": "toxicity (agranulocytosis)", "setting": "[2]", "result": "toxicity (agranulocytosis)"},
      {"measurement": "oral activity", "setting": "gastric secretion; man, oral", "result": "orally active in man"}
    ]},
    {"molecule": "C#CCNC(=NCCSCc1ccc(CN(C)C)o1)NC#N", "note": "[BL-5993, N-Cyano-N'-(2-propyn-1-yl)-N\"-{2-[(5-dimethylaminomethyl-2-furyl)methylthio]ethyl}guanidine]", "values": [
      {"measurement": "Histamine ED50 With 95% Confidence Limits", "setting": "[1]", "result": 4.28, "unit": "µg/mL"},
      {"measurement": "Concentration-Response Curve Displacement Factor", "setting": "[1]", "result": 23.78},
      {"measurement": "Activity Ratio Relative to Cimetidine", "setting": "[1]", "result": 0.94, "unit": "times"},
      {"measurement": "Activity Ratio Relative to Cimetidine", "setting": "[1]; listed as BL-5933", "result": "about 0.94 times"},
      {"measurement": "Percent Inhibition Acid Output", "setting": "gastric acid output [3]; 10 μ Mole/kg ip", "result": 34, "unit": "%"},
      {"measurement": "Percent Inhibition Acid Output", "setting": "gastric acid output [3]; 20 μ Mole/kg ip", "result": 71, "unit": "%"},
      {"measurement": "ED50", "setting": "gastric acid output [3]; ip", "result": 12.5, "unit": "µmol/kg"},
      {"measurement": "Potency Ratio", "setting": "gastric acid output [3]; ip", "result": 0.83, "unit": "times"}
    ]}
  ]
}
